This note sets out measurements from ChEMBL document CHEMBL1201862, “PubChem BioAssay data set” (2004).

Calls of active or inactive are those of the source. Rule as the data show it, for most assays here: actives have a measured EC50 and inactives only a lower limit.

Test system in one assay: not listed separately
Put plainly: Luminescence Cell-Based Dose Response HTS to Identify Inhibitors of 5'UTR Stem-Loop Driven Prion Protein mRNA Translation in H4 Neuroglioblastoma Cells. [Related pubchem assays: 1827 (Project Summary), 1813 (Primary HTS)]. The assay is classed as functional.
Settings: not given
Consider `COc1ccc(CN(Cc2cc3cc4c(cc3nc2O)OCO4)C(=O)NC2CCCCC2)cc1`, for which the EC50 is > 120 µM (not active).

Consider `CC/N=C1\S/C(=C\c2ccc(Sc3ccc(Cl)cc3)o2)C(=O)N1CC`, for which the EC50 is reported as > 120 µM (not active).

In the case of `O=C(c1ccc2c(=O)n3c(nc2c1)CCCCC3)N1CCN(C(c2ccccc2)c2ccccc2)CC1`, the EC50 was 28.3 µM (active).

As for `CCCCN(CC)S(=O)(=O)c1ccc(C(=O)Nc2nnc(-c3ccccc3Cl)o2)cc1`, the EC50 is 12.1 µM (active).

For the compound `Cc1cc(N2CCN(Cc3cn(C)nc3-c3cccc(Cl)c3)CC2)cc(C)n1`, the EC50 was 8.87 µM (active).

In the case of `O=C(N/N=C/c1ccccc1O)c1cccc2ccccc12`, the EC50 was 17.1 µM (active).

`CC(=O)Nc1ccc(NC(=O)CN(c2ccc(C(C)C)cc2)S(=O)(=O)c2ccccc2)cc1`: the EC50 is recorded as > 120 µM (not active).

For `C/C=C/Cn1c(Br)nc2c1c(=O)n(C)c(=O)n2C`, the EC50 is recorded as > 120 µM (not active).

A further assay relates to BJ. The assay can be described thus: cells. Conditions: Homo sapiens. The assay is classed as functional, cell-based.
In the case of `Cc1cc(N2CCN(Cc3cn(C)nc3-c3cccc(Cl)c3)CC2)cc(C)n1`, the EC50 was 18.7 µM (active).

A further assay has as its target T1, Corticotropin-releasing factor receptor 2/Corticotropin-releasing factor-binding protein (Homo sapiens, UniProt P24387+Q13324).
T1 sequence (Q13324 whole entry): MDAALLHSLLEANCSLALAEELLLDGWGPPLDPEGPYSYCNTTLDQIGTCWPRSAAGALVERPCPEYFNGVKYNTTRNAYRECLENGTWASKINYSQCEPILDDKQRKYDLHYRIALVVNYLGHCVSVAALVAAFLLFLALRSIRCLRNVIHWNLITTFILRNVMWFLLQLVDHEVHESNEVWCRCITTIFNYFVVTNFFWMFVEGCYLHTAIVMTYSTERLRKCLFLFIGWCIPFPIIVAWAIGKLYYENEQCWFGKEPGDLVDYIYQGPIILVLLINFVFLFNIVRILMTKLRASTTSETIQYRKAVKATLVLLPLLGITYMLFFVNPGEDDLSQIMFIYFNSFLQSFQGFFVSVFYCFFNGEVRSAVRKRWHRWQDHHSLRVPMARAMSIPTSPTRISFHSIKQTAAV
T1 sequence (P24387 whole entry): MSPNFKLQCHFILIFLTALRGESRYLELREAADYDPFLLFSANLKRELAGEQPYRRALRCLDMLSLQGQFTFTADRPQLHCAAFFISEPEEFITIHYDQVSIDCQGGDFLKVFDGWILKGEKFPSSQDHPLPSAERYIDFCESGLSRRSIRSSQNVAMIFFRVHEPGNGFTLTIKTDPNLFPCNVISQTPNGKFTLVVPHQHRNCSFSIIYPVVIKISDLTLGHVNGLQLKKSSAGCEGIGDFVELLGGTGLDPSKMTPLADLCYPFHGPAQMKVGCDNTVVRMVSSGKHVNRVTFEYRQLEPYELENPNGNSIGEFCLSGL
Put plainly: Dose Response confirmation of uHTS hits for small molecule antagonists of the CRF-binding protein and CRF-R2 receptor complex. It is filed as functional. Conditions: read-out: IC50_Mean.
For `CCCC1(CCC)NC(=O)N(CC(=O)Nc2ccc(Cl)c(S(=O)(=O)N3CCOCC3)c2)C1=O`, the IC50 is > 47.1 µM (inactive).

As to `COc1ccc(NC(=O)c2cc(C(=O)Nc3ccc(OC)cc3OC)cc([N+](=O)[O-])c2)c(OC)c1`, the IC50 is > 47.1 µM (inactive).

In the case of `CCn1ncc(C(=O)Nc2ccc([N+](=O)[O-])cc2OC)c1C`, the IC50 is > 47.1 µM (inactive).

As for `O=C(c1ccc(Br)cc1)N1CCN(c2ncccn2)CC1`, the IC50 is > 47.1 µM (inactive).

On to `CCCCc1nnc2c(N(C)S(=O)(=O)c3ccccc3)nc3ccccc3n12`, for which the IC50 is > 47.1 µM (inactive).

Regarding `Cc1nn(C(C)C(=O)O)c(=O)c2ccccc12` (configuration not stated), the IC50 was > 47.1 µM (inactive).

Take `O=C(COC(=O)CC1c2ccccc2CCN1S(=O)(=O)c1ccc(F)cc1)Nc1ccccc1` (configuration not stated): the IC50 was > 47.1 µM (inactive).

In a further assay the target is T1, Corticotropin-releasing factor receptor 2/Corticotropin-releasing factor-binding protein. The assay can be described thus: activators of CRF receptor 2 with binding protein – uHTS hits, confirmation (AID 602473). It is filed as functional. Conditions: read-out: EC50_Mean.
On to `CCCC1(CCC)NC(=O)N(CC(=O)Nc2ccc(Cl)c(S(=O)(=O)N3CCOCC3)c2)C1=O`, for which the EC50 was > 53 µM (inactive).

For the compound `COc1ccc(NC(=O)c2cc(C(=O)Nc3ccc(OC)cc3OC)cc([N+](=O)[O-])c2)c(OC)c1`, the EC50 is > 53 µM (inactive).

For `CCn1ncc(C(=O)Nc2ccc([N+](=O)[O-])cc2OC)c1C`, the EC50 is > 53 µM (inactive).

Turning to `O=C(c1ccc(Br)cc1)N1CCN(c2ncccn2)CC1`, the EC50 was > 53 µM (inactive).

For `CCCCc1nnc2c(N(C)S(=O)(=O)c3ccccc3)nc3ccccc3n12`, the EC50 is > 53 µM (inactive).

As to `Cc1nn(C(C)C(=O)O)c(=O)c2ccccc12` (configuration not stated), the EC50 is > 53 µM (inactive).

`O=C(COC(=O)CC1c2ccccc2CCN1S(=O)(=O)c1ccc(F)cc1)Nc1ccccc1` (configuration not stated): the EC50 is > 53 µM (inactive).

The test system of the next assay is Streptococcus sp. 'group A'. Put plainly: Streptococcus pyogenes SK(-)GAS viability under kanamycin – luminescence, BacTiterGlo, confirmation, counter-screen for streptokinase expression inhibitor project, dose response (AID 1900).
Settings: not given
It is filed as functional, organism-based.
Take `CCCCN(CC)S(=O)(=O)c1ccc(C(=O)Nc2nnc(-c3ccccc3Cl)o2)cc1`: the EC50 was 0.2 µM (active).

With `O=C(N/N=C/c1ccccc1O)c1cccc2ccccc12`, the EC50 was 1.58 µM (active).

Another assay has as its system Streptococcus. Put plainly: GAS UMAA2166 growth inhibition – luminescence, BacTiterGlo, counter-screen for streptokinase expression inhibitor project, dose response (AID 1915).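 Also: potency for reduction of bacterial viability or growth.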 The assay is classed as functional, organism-based.
Settings: not given
Background: The purpose of a counterscreen is to sort out artefacts and off-target activity.
As for `CCCCN(CC)S(=O)(=O)c1ccc(C(=O)Nc2nnc(-c3ccccc3Cl)o2)cc1`, the EC50 was 0.737 µM (active).

`O=C(N/N=C/c1ccccc1O)c1cccc2ccccc12`: the EC50 was 6.12 µM (active).

For another assay, the target named is T2, Heat shock factor protein 1 (Mus musculus, UniProt P38532).
T2 sequence (P38532 whole entry): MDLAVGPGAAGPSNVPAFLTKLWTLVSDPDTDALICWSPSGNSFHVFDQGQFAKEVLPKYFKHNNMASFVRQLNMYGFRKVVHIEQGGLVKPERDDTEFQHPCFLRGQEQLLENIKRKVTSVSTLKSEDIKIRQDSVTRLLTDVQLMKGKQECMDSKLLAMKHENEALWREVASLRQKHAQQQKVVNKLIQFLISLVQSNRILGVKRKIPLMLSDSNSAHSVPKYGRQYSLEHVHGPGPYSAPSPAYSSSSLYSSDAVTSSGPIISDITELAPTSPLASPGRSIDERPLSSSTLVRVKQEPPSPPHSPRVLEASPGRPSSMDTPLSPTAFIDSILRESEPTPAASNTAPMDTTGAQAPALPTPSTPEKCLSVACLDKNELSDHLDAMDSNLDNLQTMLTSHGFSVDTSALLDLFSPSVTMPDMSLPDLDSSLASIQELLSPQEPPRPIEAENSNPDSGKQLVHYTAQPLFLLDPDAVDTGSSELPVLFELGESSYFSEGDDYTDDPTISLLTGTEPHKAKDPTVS
The assay can be described thus: enhancement of HSF1-driven luciferase signal – cell-based, NIH3T3, luminescence, dose retest, confirmation (AID 435004).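 Also: stress induced by proteasome inhibitor MG132 added 30 min after compound; luciferase reporter driven by HSF1 response element in NIH3T3 cells; actives raise luminescence as potentiators of the MG132 stress response.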 It is filed as functional.
Settings: not given
As for `O=C(c1ccc2c(=O)n3c(nc2c1)CCCCC3)N1CCN(C(c2ccccc2)c2ccccc2)CC1`, the EC50 is > 260 µM (inactive).

Test system in a further assay: not listed separately
The assay can be described thus: alpha-synuclein stem-loop luciferase translation blockers – H4 neuroglioma cells, luminescence, confirmation (AID 1988). It is filed as functional, cell-based.
Settings: not given
Turning to `COc1ccc(CN(Cc2cc3cc4c(cc3nc2O)OCO4)C(=O)NC2CCCCC2)cc1`, the EC50 is given as > 120 µM (not active).

Regarding `CC/N=C1\S/C(=C\c2ccc(Sc3ccc(Cl)cc3)o2)C(=O)N1CC`, the EC50 is on record as > 120 µM (not active).

Regarding `O=C(c1ccc2c(=O)n3c(nc2c1)CCCCC3)N1CCN(C(c2ccccc2)c2ccccc2)CC1`, the EC50 is 24.1 µM (active).

For the compound `CCCCN(CC)S(=O)(=O)c1ccc(C(=O)Nc2nnc(-c3ccccc3Cl)o2)cc1`, the EC50 was 10 µM (active).

`Cc1cc(N2CCN(Cc3cn(C)nc3-c3cccc(Cl)c3)CC2)cc(C)n1`: the EC50 is 10.6 µM (active).

Regarding `O=C(N/N=C/c1ccccc1O)c1cccc2ccccc12`, the EC50 was 6.71 µM (active).

`CC(=O)Nc1ccc(NC(=O)CN(c2ccc(C(C)C)cc2)S(=O)(=O)c2ccccc2)cc1`: the EC50 is given as > 120 µM (not active).

Consider `C/C=C/Cn1c(Br)nc2c1c(=O)n(C)c(=O)n2C`, for which the EC50 was 59.3 µM (active).

Test system in the next assay: not listed separately
Put plainly: DRD fibroblast viability loss – cell-based, non-viral oncogenic, luminescence, dose response (AID 1934). It is filed as functional. To be noted: Homo sapiens.
As for `Cc1cc(N2CCN(Cc3cn(C)nc3-c3cccc(Cl)c3)CC2)cc(C)n1`, the EC50 is 11.8 µM (active).

Test system in another assay: not listed separately
Put plainly: luciferase reporter signal suppression in cells – H4 neuroglioma cells, luminescence, dose response (AID 1990). The assay is classed as functional, cell-based.
Settings: not given
Background: In a reporter assay the amount or activity of a reporter protein is the signal.
Take `COc1ccc(CN(Cc2cc3cc4c(cc3nc2O)OCO4)C(=O)NC2CCCCC2)cc1`: the EC50 was 17.8 µM (active).

Take `CC/N=C1\S/C(=C\c2ccc(Sc3ccc(Cl)cc3)o2)C(=O)N1CC`: the EC50 is 21.4 µM (active).

`O=C(c1ccc2c(=O)n3c(nc2c1)CCCCC3)N1CCN(C(c2ccccc2)c2ccccc2)CC1`: the EC50 is 12.7 µM (active).

As for `CCCCN(CC)S(=O)(=O)c1ccc(C(=O)Nc2nnc(-c3ccccc3Cl)o2)cc1`, the EC50 is 11.9 µM (active).

With `Cc1cc(N2CCN(Cc3cn(C)nc3-c3cccc(Cl)c3)CC2)cc(C)n1`, the EC50 was 10.4 µM (active).

Regarding `O=C(N/N=C/c1ccccc1O)c1cccc2ccccc12`, the EC50 is 2.12 µM (active).

`CC(=O)Nc1ccc(NC(=O)CN(c2ccc(C(C)C)cc2)S(=O)(=O)c2ccccc2)cc1`: the EC50 is > 120 µM (not active).

Take `C/C=C/Cn1c(Br)nc2c1c(=O)n(C)c(=O)n2C`: the EC50 is recorded as > 120 µM (not active).

The subject of another assay is BJ. Put plainly: BJ-TERT fibroblast viability loss – cell-based, RAS-independent, luminescence, dose response (AID 1933). It is filed as functional. Conditions: Homo sapiens.
For the compound `Cc1cc(N2CCN(Cc3cn(C)nc3-c3cccc(Cl)c3)CC2)cc(C)n1`, the EC50 was 11.3 µM (active).

For the next assay, the system named is BJ. The assay can be described thus: BJ-TERT-LT-ST fibroblast viability loss – cell-based, RAS-independent, luminescence, dose response (AID 1935).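 Also: BJ fibroblasts immortalized with TERT plus LT and ST oncogenes.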 The assay is classed as functional. To be noted: Homo sapiens.
Consider `Cc1cc(N2CCN(Cc3cn(C)nc3-c3cccc(Cl)c3)CC2)cc(C)n1`, for which the EC50 is > 150 µM (inconclusive).
